From patent US20070287738A1, “Substituted Cyanopyridines as protein kinase inhibitors” (priority 2006, published 2007)

Molecular target: T1, purified recombinant active kinase domain of full length PKC theta (amino acids 362-706) (Homo sapiens, UniProt Q04759)
T1 construct: active kinase domain of full length PKC theta (amino acids 362-706)
Assay: Radioactive kinase assay for inhibition of the active kinase domain (KD) of PKCθ
Assay type: biochemical
Settings: radioactive (ATP γ P33) assay, average value
Description: A Radioactive Kinase Assay for Inhibition of the Active Kinase Domain (KD) of PKCθ
This assay is based on the phosphorylation of a biotinylated substrate by a kinase utilizing radiolabeled ATP (ATP γ P33). The substrate was a biotinylated peptide with a sequence of biotin-FARKGSLRQ-C(O)NH2. The enzyme was purified recombinant active kinase domain of full length PKC theta (amino acids 362-706). The assay buffer was composed of 100 mM Hepes, pH7.5, 2 mM MgCl2, 20 mM β-glycerophosphate and 0.008% TritonX 100. A reaction mixture of ATP, ATP γ P33 (PerkinElmer), DTT, and the enzyme was prepared in the assay buffer and added to a 96-well polypropylene plate. The compound (diluted in DMSO in a separate 96-well polypropylene plate) was added to the reaction mixture and incubated at room temperature. Following the incubation, the peptide substrate was added to the reaction mixture to initiate the enzymatic reaction. The reaction was terminated with the addition of a stop solution (100 mM EDTA, 0.2% TritonX100, and 20 mM NaHPO4) and transferred from the assay plate to a washed streptavidin-coated 96-well scintiplate (PerkinElmer). The scintiplate was incubated at room temperature, washed in PBS with 0.1% TritonX 100, and counted in the 1450 Microbeta Trilux (Wallac, Version 2.60). Counts were recorded for each well as corrected counts per minute (CCPM). The counts were considered corrected because they were adjusted according to a P33 normalization protocol, which corrects for efficiency and background differences between the instrument detectors (software version 4.40.01).

T1 sequence (Q04759 362-706): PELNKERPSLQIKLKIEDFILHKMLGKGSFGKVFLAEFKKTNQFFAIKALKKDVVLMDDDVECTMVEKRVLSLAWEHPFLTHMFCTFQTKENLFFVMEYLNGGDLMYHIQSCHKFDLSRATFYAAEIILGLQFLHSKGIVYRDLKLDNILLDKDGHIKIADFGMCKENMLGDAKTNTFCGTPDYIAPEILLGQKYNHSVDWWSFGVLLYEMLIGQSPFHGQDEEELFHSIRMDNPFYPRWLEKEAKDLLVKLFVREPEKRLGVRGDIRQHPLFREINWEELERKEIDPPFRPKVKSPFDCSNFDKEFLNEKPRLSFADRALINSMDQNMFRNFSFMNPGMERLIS

Row | IC50 [nM] | Structure (SMILES)
1 | 13800 | COc1ccc(-c2cncc(C#N)c2Nc2cccc(OCc3ccccc3)c2)cc1OC [Compound 117, 4-{[3-(benzyloxy)phenyl]amino}-5-(3,4-dimethoxyphenyl)nicotinonitrile]
2 | 5000 | COc1ccc(-c2cncc(C#N)c2Nc2cccc(Br)c2)cc1OC [Compound 135, 4-[(3-bromophenyl)amino]-5-(3,4-dimethoxyphenyl)nicotinonitrile]
3 | 214000 | N#Cc1cncc(-c2cccc([N+](=O)[O-])c2)c1Nc1ccc(OCc2ccccc2)c(Cl)c1 [Compound 142, 4-{[4-(benzyloxy)-3-chlorophenyl]amino}-5-(3-nitrophenyl)nicotinonitrile]
4 | 3600 | COc1ccc(-c2cncc(C#N)c2Nc2cc(Cl)ccc2Cl)cc1OC [Compound 113, 4-[(2,5-dichlorophenyl)amino]-5-(3,4-dimethoxyphenyl)nicotinonitrile]

Molecular target: T2, human PKCθ full length enzyme (Homo sapiens, UniProt Q04759)
T2 construct: human PKCθ full length enzyme (Panvera Cat# P2996); purchased Panvera P2996
T2 sequence (Q04759 whole entry): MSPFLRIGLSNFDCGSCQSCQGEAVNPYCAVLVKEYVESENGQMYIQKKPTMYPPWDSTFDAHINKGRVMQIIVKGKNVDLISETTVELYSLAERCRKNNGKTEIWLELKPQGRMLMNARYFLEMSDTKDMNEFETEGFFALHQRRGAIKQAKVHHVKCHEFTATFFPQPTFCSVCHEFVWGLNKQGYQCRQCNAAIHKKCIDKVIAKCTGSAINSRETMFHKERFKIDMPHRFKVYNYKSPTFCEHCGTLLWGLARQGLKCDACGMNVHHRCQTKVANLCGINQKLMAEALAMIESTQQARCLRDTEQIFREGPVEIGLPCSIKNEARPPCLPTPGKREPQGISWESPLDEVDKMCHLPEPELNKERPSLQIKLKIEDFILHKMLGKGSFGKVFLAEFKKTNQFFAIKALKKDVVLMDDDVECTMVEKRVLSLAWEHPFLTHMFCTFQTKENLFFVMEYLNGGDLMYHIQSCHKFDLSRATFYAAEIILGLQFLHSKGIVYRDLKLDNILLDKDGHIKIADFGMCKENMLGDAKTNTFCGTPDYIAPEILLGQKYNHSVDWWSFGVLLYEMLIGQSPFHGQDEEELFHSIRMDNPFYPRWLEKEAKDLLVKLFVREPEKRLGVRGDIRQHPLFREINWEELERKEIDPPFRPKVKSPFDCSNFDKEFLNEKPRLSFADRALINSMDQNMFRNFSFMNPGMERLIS
Assay: PKCθ IMAP assay
Assay type: biochemical
Settings: full length enzyme 1 nM; ATP 6 μM; peptide 100 nM; FP readout; average value
Description: The materials used include the following: human PKCθ full length enzyme (Panvera Cat# P2996); substrate peptide: 5FAM-RFARKGSLRQKNV-OH (Molecular Devices, RP7032); ATP (Sigma Cat # A2383); DTT (Pierce, 20291); 5× kinase reaction buffer (Molecular Devices, R7209); 5× binding buffer A (Molecular Devices, R7282), 5× binding buffer B (Molecular Devices, R7209); IMAP Beads (Molecular Devices, R7284); and 384-well plates (Corning Costar, 3710).
The reaction buffer was prepared by diluting the 5× stock reaction buffer and adding DTT to obtain a concentration of 3.0 mM. The binding buffer was prepared by diluting the 5× binding buffer A. A master mix solution was prepared using a 90% dilution of the reaction buffer containing 2× ATP (12 uM) and 2× peptide (200 nm). Compounds were diluted in DMSO to 20× of the maximum concentration for the IC50 measurement. 27 μl of the master mix solution for each IC50 curve was added to the first column in a 384-well plate and 3 μl of 20× compound in DMSO was added to each well. The final concentration of compound was 2× and 10% DMSO. DMSO was added to the rest of the master mix to increase the concentration to 10%. 10 μl of the master mix containing 10% DMSO was added to the rest of the wells on the plate except the 2nd column. 20 μl was transferred from the first column to the 2nd column.
The compounds were serially diluted in 2:1 ratio starting from the 2nd column. A 2× (2 nM) PKCθ solution was made in the reaction buffer. 10 μl of the PKCθ solution was added to every well to achieve these final concentrations: PKCθ—1 nM; ATP—6 μM; peptide—100 nM; DMSO—5%. Samples were incubated for 25 minutes at room temperature. The binding reagent was prepared by diluting the beads in 1× binding buffer to 800:1. 50 μl of the binding reagent was added to every well and incubated for 20 minutes. FP was measured using Envision2100 (PerkinElmer Life Sciences). Wells with no ATPs and wells with no enzymes were used as controls.

Row | IC50 [nM] | Structure (SMILES)
5 | 310 | COc1ccc(-c2cncc(C#N)c2Nc2cccc(O)c2)cc1OC [Compound 159, 5-(3,4-dimethoxyphenyl)-4-[(3-hydroxyphenyl)amino]nicotinonitrile]
6 | > 95000 | COc1cccc(-c2cncc(C#N)c2Nc2ccc(C#N)cc2)c1 [Compound 157, 4-[(4-cyanophenyl)amino]-5-(3-methoxyphenyl)nicotinonitrile]
7 | 2400 | COc1cccc(-c2cncc(C#N)c2Nc2ccc(F)c(F)c2)c1 [Compound 158, 4-[(3,4-difluorophenyl)amino]-5-(3-methoxyphenyl)nicotinonitrile]
8 | 35000 | COc1ccc(-c2cncc(C#N)c2Nc2cccc(N(C)C(C)=O)c2)cc1OC [Compound 128, N-(3-{[3-cyano-5-(3,4-dimethoxyphenyl)pyridin-4-yl]amino}phenyl)-N-methylacetamide]
9 | 7840 | CN(C)c1ccc(-c2cncc(C#N)c2Nc2cccc([N+](=O)[O-])c2)cc1 [Compound 152, 5-[4-(dimethylamino)phenyl]-4-[(3-nitrophenyl)amino]nicotinonitrile]
10 | 800 | COc1cccc(Nc2c(C#N)cncc2-c2ccc(N(C)C)cc2)c1 [Compound 130, 5-[4-(dimethylamino)phenyl]-4-[(3-methoxyphenyl)amino]nicotinonitrile]
11 | 5210 | COc1ccc(-c2cncc(C#N)c2Nc2cccc(OCCO)c2)cc1OC [Compound 160, 5-(3,4-dimethoxyphenyl)-4-{[3-(2-hydroxyethoxy)phenyl]amino}nicotinonitrile]
12 | 30000 | CN(C)c1ccc(-c2cncc(C#N)c2Nc2ccc(C#N)cc2)cc1 [Compound 133, 4-[(4-cyanophenyl)amino]-5-[4-(dimethylamino)phenyl]nicotinonitrile]
13 | 570 | COc1ccc(-c2cncc(C#N)c2Nc2cccc(NC(C)=O)c2)cc1OC [Compound 127, N-(3-{[3-cyano-5-(3,4-dimethoxyphenyl)pyridin-4-yl]amino}phenyl) acetamide]
14 | 1570 | COc1cccc(-c2cncc(C#N)c2Nc2cccc(F)c2)c1 [Compound 155, 4-[(3-fluorophenyl)amino]-5-(3-methoxyphenyl)nicotinonitrile]
15 | 36000 | COc1ccc(-c2cncc(C#N)c2Nc2cccc(NS(C)(=O)=O)c2)cc1OC [Compound 129, N-(3-{[3-cyano-5-(3,4-dimethoxyphenyl)pyridin-4-yl]amino}phenyl)methanesulfonamide]
16 | 1730 | COc1cccc(Nc2c(C#N)cncc2-c2cccc(OC)c2)c1 [Compound 154, 5-(3-methoxyphenyl)-4-[(3-methoxyphenyl)amino]nicotinonitrile]
17 | 46400 | COc1cccc(-c2cncc(C#N)c2Nc2ccc(C(=O)O)cc2)c1 [Compound 156, 4-{[3-cyano-5-(3-methoxyphenyl)pyridin-4-yl]amino}benzoic acid]
18 | 710 | CN(C)c1ccc(-c2cncc(C#N)c2Nc2cccc(F)c2)cc1 [Compound 131, 5-[4-(dimethylamino)phenyl]-4-[(3-fluorophenyl)amino]nicotinonitrile]
19 | 9630 | COc1cccc(-c2cncc(C#N)c2Nc2cccc([N+](=O)[O-])c2)c1 [Compound 153, 5-(3-methoxyphenyl)-4-[(3-nitrophenyl)amino]nicotinonitrile]

The remaining lines, values behind:

Row | Structure (SMILES) | IC50 [nM]
20 | N#Cc1cncc(-c2cc3cc(C=O)ccc3s2)c1Nc1cc(O)ccc1Cl [Compound 162, 4-[(2-chloro-5-hydroxyphenyl)amino]-5-(5-formyl-1-benzothein-2-yl)nicotinonitrile] | 30
21 | CN(C)c1ccc(-c2cncc(C#N)c2Nc2ccc(F)c(F)c2)cc1 [Compound 134, 4-[(3,4-difluorophenyl)amino]-5-[4-(dimethylamino)phenyl]nicotinonitrile] | 2030
22 | N#Cc1cncc(-c2cc3cc(CN4CCCCC4)ccc3o2)c1Nc1cc(O)ccc1Oc1ccccc1 [Compound 169, 4-[(5-hydroxy-2-phenoxyphenyl)amino]-5-[5-(piperidin-1-ylmethyl)-1-benzofuran-2-yl]nicotinonitrile] | 650
23 | COc1ccc(-c2cncc(C#N)c2Nc2cccc(OC[C@@H](N)Cc3ccccc3)c2)cc1OC [Compound 161, 4-[(3-{[(2S)-2-amino-3-phenylpropyl]-oxy}-phenyl)amino]-5-(3,4-dimethoxyphenyl)nicotinonitrile] | 820
24 | COc1ccc(Nc2c(C#N)cncc2-c2cc3cc(CN4CCCCC4)ccc3o2)c(C)c1 [Compound 172, 4-[(4-methoxy-2-methylphenyl)amino]-5-[5-(piperidin-1-ylmethyl)-1-benzofuran-2-yl]nicotinonitrile] | 160
25 | N#Cc1cncc(-c2cc3cc(CN4CCCCC4)ccc3s2)c1Nc1cc(OCCO)ccc1Cl [Compound 164] | 60
26 | N#Cc1cncc(-c2cc3cc(CN4CCCCC4)ccc3s2)c1Nc1cc(O)ccc1Cl [Compound 163, 4-[(2-chloro-5-hydroxyphenyl)amino]-5-[5-(piperidin-1-ylmethyl)-1-benzothien-2-yl]nicotinonitrile] | 30
27 | Cc1c(N)ccc(Nc2c(C#N)cncc2-c2cc3cc(CN4CCCCC4)ccc3s2)c1C [Compound 165, 4-[(4-amino-2,3-dimethylphenyl)amino]-5-[5-(piperidin-1-ylmethyl)-1-benzothien-2-yl]nicotinonitrile] | 650
28 | COc1ccc(Cl)c(Nc2c(C#N)cncc2-c2cc3cc(CN4CCCCC4)ccc3o2)c1 [Compound 167, 4-[(2-chloro-5-methoxyphenyl)amino]-5-[5-(piperidin-1-ylmethyl)-1-benzofuran-2-yl]nicotinonitrile] | 730
29 | Cc1ccc(Cl)c(Nc2c(C#N)cncc2-c2cc3cc(CN4CCCCC4)ccc3o2)c1 [Compound 168, 4-[(2-chloro-5-methylphenyl)amino]-5-[5-(piperidin-1-ylmethyl)-1-benzofuran-2-yl]nicotinonitrile] | 2040
30 | N#Cc1cncc(-c2cc3cc(CN4CCCCC4)ccc3o2)c1Nc1cc(O)c(Cl)cc1Cl [Compound 171, 4-[(2,4-dichloro-5-hydroxyphenyl)amino]-5-[5-(piperidin-1-ylmethyl)-1-benzofuran-2-yl]nicotinonitrile] | 270
31 | COc1ccc(-c2cncc(C#N)c2NCc2cccc(CN)c2)cc1OC [Compound 170, 4-{[3-(aminomethyl)benzyl]amino}-5-(3,4-dimethoxyphenyl)nicotinonitrile] | 11900
32 | Cc1cc(Nc2c(C#N)cncc2-c2cc3cc(CN4CCCCC4)ccc3s2)ccc1N [Compound 166, 4-[(4-amino-3-methylphenyl)amino]-5-[5-(piperidin-1-ylmethyl)-1-benzothien-2-yl]nicotinonitrile] | 1060
